In patent US12655142B2 (Merck Patent GmbH, priority 2019, dated 2026):

Assays:
c-Kit(V654A) = molecular target: T1, c-Kit(V654A) (Homo sapiens, UniProt P10721, V654A); test: c-Kit(V654A) assay (33P-ATP filter binding kinase assay); format: biochemical; details: recombinant human c-Kit aa 544-end V654A, ATP 200 μM
T1 construct: recombinant human c-Kit, amino acids 544-end containing the V654A mutation; GST (N)
Experimental: c-Kit(V654A) (N-terminal GST-tagged, recombinant human c-Kit, amino acids 544-end containing the V654A mutation) is incubated with 8 mM MOPS pH 7.0, 0.2 mM EDTA, 250 μM GGMEDIYEFMGGKKK, 10 mM MgAcetate and [gamma-33P-ATP] (specific activity approx. 500 cpm/pmol, concentration 200 μM). The reaction is initiated by the addition of the MgATP mix. After incubation for 40 minutes at room temperature, the reaction is stopped by the addition of 3% phosphoric acid solution. 10 μL of the reaction is then spotted onto a P30 filtermat and washed three times for 5 minutes in 75 mM phosphoric acid and once in methanol prior to drying and scintillation counting.

[1] = molecular target: T2, GIST430/654 cell line expressing mutated constitutively active cKIT receptor tyrosine kinase (Δ560-576 deletion and V654A point mutation) (Homo sapiens, UniProt P10721, DEL560-576/V654A); test: Cellular cKIT autophosphorylation (phospho-Y307-cKIT, Luminex bead assay) in GIST430/654 cells; format: cell-based; details: compounds 45 min, read-out: GIST 430/654 IC50
T2 construct: endogenous in cells; host or cells: GIST430/654 cells
T2 sequence (P10721 with tags, fused parts or gaps DEL560-576/V654A): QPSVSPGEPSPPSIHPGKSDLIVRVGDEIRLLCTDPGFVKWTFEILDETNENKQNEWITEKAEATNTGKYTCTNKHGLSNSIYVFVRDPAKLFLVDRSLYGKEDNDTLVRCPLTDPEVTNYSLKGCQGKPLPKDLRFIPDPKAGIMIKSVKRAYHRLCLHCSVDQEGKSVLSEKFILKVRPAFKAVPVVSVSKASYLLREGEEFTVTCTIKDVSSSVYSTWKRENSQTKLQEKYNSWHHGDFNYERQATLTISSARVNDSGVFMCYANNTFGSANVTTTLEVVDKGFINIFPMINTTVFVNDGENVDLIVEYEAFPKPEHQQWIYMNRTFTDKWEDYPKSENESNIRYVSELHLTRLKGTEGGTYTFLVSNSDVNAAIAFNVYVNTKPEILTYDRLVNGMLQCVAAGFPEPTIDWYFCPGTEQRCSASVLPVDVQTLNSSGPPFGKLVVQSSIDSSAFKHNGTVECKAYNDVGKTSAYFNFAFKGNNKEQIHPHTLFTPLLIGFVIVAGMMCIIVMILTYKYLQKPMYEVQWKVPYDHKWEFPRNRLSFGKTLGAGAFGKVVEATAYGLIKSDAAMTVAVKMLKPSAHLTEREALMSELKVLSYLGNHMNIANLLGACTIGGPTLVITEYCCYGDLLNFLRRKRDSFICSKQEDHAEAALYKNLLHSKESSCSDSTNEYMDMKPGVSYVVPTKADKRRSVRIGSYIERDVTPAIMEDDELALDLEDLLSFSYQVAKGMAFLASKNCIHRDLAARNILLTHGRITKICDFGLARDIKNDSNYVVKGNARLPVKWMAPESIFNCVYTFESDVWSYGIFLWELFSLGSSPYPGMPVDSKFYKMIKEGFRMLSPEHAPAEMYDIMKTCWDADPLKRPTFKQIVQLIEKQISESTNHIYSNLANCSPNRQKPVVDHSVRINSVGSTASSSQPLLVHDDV
Experimental: Assay Principle for Cellular Testing of cKIT Mutant Inhibitors
The GIST430 cell line expressing constitutive active cKIT receptor tyrosine kinase (Δ560-576 deletion) and the Imatinib resistant GIST430/654 cell line expressing mutated constitutively active cKIT receptor tyrosine kinase (Δ560-576 deletion and V654A point mutation) were employed for assessing cellular potency of compounds. Cellular activity of mutant cKIT was determined by the degree of cKIT autophosphorylation at tyrosine 307 using a Luminex-based bead assay. GIST430 cells were plated with 22,000 cells per well of a 96-well plate in 100 μl medium (85% IMDM/15% FCS) and GIST430/654 cells were plated with 25,000 cells per well of a 96-well plate in 100 μl medium (85% IMDM/15% FCS supplemented with 100 nM Imatinib). At the following day compounds were added in a serial dilution for 45 min. Then, cells were lysed with 90 μl lysis buffer (20 mM Hepes pH 7.5, 200 mM NaCl, 1.5 mM MgCl2×6H2O, 0.4 mM EDTA, 1% Triton-X-100, 1% Phosphatase-Inhibitor II, 20 mM β-Glycerolphosphat, 0.1% Protease-Inhibitor Cocktail III, 0.01% Benzonase) and lysates were cleared by centrifugation through a 96-well filter plate (0.65 μm). Samples were incubated with Luminex-beads which were coupled with an anti-total cKIT antibody overnight at 4° C. under gentle agitation. For detection of phospho-Y307-cKIT a phosphospecific antibody and a species-specific PE-labeled secondary antibody were added. The amount of phospho-Y307-cKIT was determined in a Luminex 200 instrument measuring 100 events per well within 60 seconds.
Counts from samples treated with compounds were calculated as percent of control from solvent treated (0.3% DMSO) samples. Dose-response curves were fitted and IC50 values were determined using Genedata Screener software.

T1 sequence (P10721 544-976 V654A): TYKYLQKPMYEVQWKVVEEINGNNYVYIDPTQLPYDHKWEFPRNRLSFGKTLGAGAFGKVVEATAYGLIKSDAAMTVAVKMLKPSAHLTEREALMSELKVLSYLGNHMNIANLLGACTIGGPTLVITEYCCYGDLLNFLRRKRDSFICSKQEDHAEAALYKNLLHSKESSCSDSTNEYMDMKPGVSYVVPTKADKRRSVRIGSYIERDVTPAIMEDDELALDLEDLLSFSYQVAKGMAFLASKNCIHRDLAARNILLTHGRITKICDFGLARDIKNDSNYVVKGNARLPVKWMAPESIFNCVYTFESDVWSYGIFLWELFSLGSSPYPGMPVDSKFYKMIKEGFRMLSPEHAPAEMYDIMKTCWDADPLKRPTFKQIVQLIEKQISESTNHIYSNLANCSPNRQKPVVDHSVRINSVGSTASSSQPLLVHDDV

Compound | IC50 (c-Kit(V654A)) [nM] | IC50 [1] [nM]
COc1ccn2c(-c3cc(NCc4ccc(-c5cn(C)nc5N)cc4)ncn3)cnc2c1 [A35, [4-(3-amino-1-methyl-1H-pyrazol-4-yl)-benzyl]-[6-(7-methoxy-imidazo[1,2-a]pyridin-3-yl)-pyrimidin-4-yl]-amine] | 71 | 890
c1cn(-c2ccc(CNc3cc(-c4cnc5cc(OCCN6CCCC6)ccn45)ncn3)cc2)nn1 [A70, {6-[7-(2-pyrrolidin-1-yl-ethoxy)-imidazo[1,2-a]pyridin-3-yl]-pyrimidin-4-yl}-(4-[1,2,3]triazol-1-yl-benzyl)-amine] | 21 | 230
COc1ccn2c(-c3cc(NCc4ccc(-c5cnc(C)o5)cc4)ncn3)cnc2c1 [A48, [6-(7-methoxy-imidazo[1,2-a]pyridin-3-yl)-pyrimidin-4-yl]-[4-(2-methyl-oxazol-5-yl)-benzyl]-amine] | 25 | 470
COc1ccn2c(-c3cc(NCc4ccc(-c5cnn(C)c5CO)cc4)ncn3)cnc2c1 [A161, [4-(4-{[6-(7-methoxy-imidazo[1,2-a]pyridin-3-yl)-pyrimidin-4-ylamino]-methyl}-phenyl)-2-methyl-2H-pyrazol-3-yl]-methanol] | 22 | 180
Cn1cc(-c2ccc(CNc3cc(-c4cnc5cc(OCC6CCN(C7CC7)CC6)ccn45)ncn3)cc2)cn1 [A187, {6-[7-(1-cyclopropyl-piperidin-4-ylmethoxy)-imidazo[1,2-a]pyridin-3-yl]-pyrimidin-4-yl}-[4-(1-methyl-1H-pyrazol-4-yl)-benzyl]-amine] | 7.5 | 380
Cn1cc(-c2ccc(CNc3cc(-c4cnc5cc(OCCN6CCOCC6=O)ccn45)ncn3)cc2)cn1 [A92, 4-[2-({3-[6-({[4-(1-methyl-1H-pyrazol-4-yl)phenyl]methyl}amino)pyrimidin-4-yl]imidazo[1,2-a]pyridin-7-yl}oxy)ethyl]morpholin-3-one] | 8.2 | 87
Cn1cc(-c2ccc(CNc3cc(-c4cnc5cc(C(F)(F)F)ccn45)ncn3)cc2)cn1 [A10, N-{[4-(1-methyl-1H-pyrazol-4-yl)phenyl]methyl}-6-[7-(trifluoromethyl)imidazo[1,2-a]pyridin-3-yl]pyrimidin-4-amine] | 13 | 1000
Cn1cc(-c2ccc(CNc3cc(-c4cnc5cc(OC6CCN(C7COC7)CC6)ccn45)ncn3)cc2)cn1 [A182, N-{[4-(1-methyl-1H-pyrazol-4-yl)phenyl]methyl}-6-(7-{[1-(oxetan-3-yl)piperidin-4-yl]oxy}imidazo[1,2-a]pyridin-3-yl)pyrimidin-4-amine] | 11 | 92
COc1ccn2c(-c3cc(NCc4ccc(-c5cncn5C)cc4)ncn3)cnc2c1 [A39, 6-{7-methoxyimidazo[1,2-a]pyridin-3-yl}-N-{[4-(1-methyl-1H-imidazol-5-yl)phenyl]methyl}pyrimidin-4-amine] | 27 | 640
CN(C)CCOc1ccn2c(-c3cc(NCc4ccc(-c5cnn(C)c5)cc4)ncn3)cnc2c1 [A59, 6-{7-[2-(dimethylamino)ethoxy]imidazo[1,2-a]pyridin-3-yl}-N-{[4-(1-methyl-1H-pyrazol-4-yl)phenyl]methyl}pyrimidin-4-amine] | 11 | 82
Cn1cc(-c2ccc(CNc3cc(-c4cnc5cc(OCc6nccn6C)ccn45)ncn3)cc2)cn1 [A113, {6-[7-(1-methyl-1H-imidazol-2-ylmethoxy)-imidazo[1,2-a]pyridin-3-yl]-pyrimidin-4-yl}-[4-(1-methyl-1H-pyrazol-4-yl)-benzyl]-amine] | 14 | 620
COc1ccn2c(-c3cc(NCc4ccc(-c5ccc(C)nn5)cc4)ncn3)cnc2c1 [A40, 6-{7-methoxyimidazo[1,2-a]pyridin-3-yl}-N-{[4-(6-methylpyridazin-3-yl)phenyl]methyl}pyrimidin-4-amine] | 36 | 1100
COc1ccn2c(-c3cc(NCc4ccc(-c5cnn(C)n5)cn4)ncn3)cnc2c1 [A44, [6-(7-methoxy-imidazo[1,2-a]pyridin-3-yl)-pyrimidin-4-yl]-[5-(2-methyl-2H-[1,2,3]triazol-4-yl)-pyridin-2-ylmethyl]-amine] | 27 | 510
Cn1ncc(-c2ccc(CNc3cc(-c4cnc5cc(OCCN6CC7CC7C6)ccn45)ncn3)cc2)n1 (centres unmarked) [A128, (6-{7-[2-(3-aza-bicyclo[3.1.0]hex-3-yl)-ethoxy]-imidazo[1,2-a]pyridin-3-yl}-pyrimidin-4-yl)-[4-(2-methyl-2H-[1,2,3]triazol-4-yl)-benzyl]-amine] | 9.9 | 130
c1ccn2c(-c3cc(NCc4ccc(-c5ncc[nH]5)cc4)ncn3)cnc2c1 [A157, (6-imidazo[1,2-a]pyridin-3-yl-pyrimidin-4-yl)-[4-(1H-imidazol-2-yl)-benzyl]-amine] | 33 | 1500
COc1ccn2c(-c3cc(NCc4ccc(-c5cnn(C)c5)c(F)c4)ncn3)cnc2c1 [A29, N-{[3-fluoro-4-(1-methyl-1H-pyrazol-4-yl)phenyl]methyl}-6-{7-methoxyimidazo[1,2-a]pyridin-3-yl}pyrimidin-4-amine] | 15 | 120
Cn1cc(-c2ccc(CNc3cc(-c4cnc5cc(O)ccn45)ncn3)cc2)cn1 [A160, 3-[6-({[4-(1-methyl-1H-pyrazol-4-yl)phenyl]methyl}amino)pyrimidin-4-yl]imidazo[1,2-a]pyridin-7-ol] | 38 | 1000

Next, values leading:

IC50 (c-Kit(V654A)) [nM] | IC50 [1] [nM] | Compound
7.5 | 79 | Cn1ncc(-c2ccc(CNc3cc(-c4cnc5cc(OCC(C)(C)N6CCOCC6)ccn45)ncn3)cc2)n1 [A109, {6-[7-(2-methyl-2-morpholin-4-yl-propoxy)-imidazo[1,2-a]pyridin-3-yl]-pyrimidin-4-yl}-[4-(2-methyl-2H-[1,2,3]triazol-4-yl)-benzyl]-amine]
2.2 | 39 | COCCN1CCC(COc2ccn3c(-c4cc(NCc5ccc(-c6cnn(C)n6)cc5)ncn4)cnc3c2)CC1 [A191, (6-{7-[1-(2-methoxy-ethyl)-piperidin-4-ylmethoxy]-imidazo[1,2-a]pyridin-3-yl}-pyrimidin-4-yl)-[4-(2-methyl-2H-[1,2,3]triazol-4-yl)-benzyl]-amine]
7.3 | 65 | Cn1cc(-c2ccc(CNc3cc(-c4cnc5cc(OCCCN6CC(F)(F)C6)ccn45)ncn3)cc2)cn1 [A142, 6-{7-[3-(3,3-difluoroazetidin-1-yl)propoxy]imidazo[1,2-a]pyridin-3-yl}-N-{[4-(1-methyl-1H-pyrazol-4-yl)phenyl]methyl}pyrimidin-4-amine]
3.7 | 49 | CN1CCC(CCOc2ccn3c(-c4cc(NCc5ccc(-c6cnn(C)c6)cc5)ncn4)cnc3c2)C1 (centres unmarked) [A115, [4-(1-methyl-1H-pyrazol-4-yl)-benzyl]-(6-{7-[2-(1-methyl-pyrrolidin-3-yl)-ethoxy]-imidazo[1,2-a]pyridin-3-yl}-pyrimidin-4-yl)-amine]
5.5 | 200 | Cn1ccc(-c2ccc(CNc3cc(-c4cnc5ccccn45)ncn3)cc2)n1 [A14, (6-Imidazo[1,2-a]24yridine-3-yl-pyrimidin-4-yl)-[4-(1-methyl-1H-pyrazol-3-yl)-benzyl]-amine]
1.6 | 48 | CN1CCC(CCOc2ccn3c(-c4cc(NCc5ccc(-c6cnn(C)n6)cc5)ncn4)cnc3c2)C1 (centres unmarked) [A116, (6-{7-[2-(1-methyl-pyrrolidin-3-yl)-ethoxy]-imidazo[1,2-a]pyridin-3-yl}-pyrimidin-4-yl)-[4-(2-methyl-2H-[1,2,3]triazol-4-yl)-benzyl]-amine]
3.8 | 170 | COCCN1CCC(COc2ccn3c(-c4cc(NCc5ccc(-c6cnn(C)c6)cc5)ncn4)cnc3c2)CC1 [A190]
3.4 | 62 | Cn1ncc(-c2ccc(CNc3cc(-c4cnc5cc(OCCC6CCN(C7COC7)C6)ccn45)ncn3)cc2)n1 (centres unmarked) [A119, [4-(2-methyl-2H-[1,2,3]triazol-4-yl)-benzyl]-(6-{7-[2-(1-oxetan-3-yl-pyrrolidin-3-yl)-ethoxy]-imidazo[1,2-a]pyridin-3-yl}-pyrimidin-4-yl)-amine]
